Test results as given in patent US11542266B1, “Substituted piperidines as BTK inhibitors” (HAISCO PHARMACEUTICALS PTE. LTD., priority 2019, dated 2023).
Read-outs that look alike come from different tables or passages of the source.

Legend:
[1] = Pharmacokinetic experiment in rats (i.g. vehicle 0.5% MC); type: in vivo; settings: male SD rats; for AUC(0-t): i.g. 20 mg/kg, vehicle 0.5% MC
Experimental: Objective: In this experiment, a single dose of each test compound was administered to SD rats intravenously and intragastrically, the concentrations of the test compound in plasma of rats were measured, and the pharmacokinetic characteristics and bioavailability of the test compound in rats were evaluated.
Experimental animals: Male SD rats, 200-250 g, 6-8 weeks old, 6 rats/test compound. The experimental animals were purchased from CHENGDU DOSSY EXPERIMENTAL ANIMALS CO., LTD.
Experimental method: On the day of the experiment, 6 SD rats were randomly grouped according to their body weight. The animals were fasted with water available for 12 to 14 hours one day before the administration of a test compound, and were fed 4 hours after the administration.
Sampling: Before and after the administration, 0.1 ml of blood was taken from the orbit of the rats under isoflurane anesthesia, and placed in an EDTAK2 centrifuge tube. Centrifugation was carried out at 5000 rpm at 4° C. for 10 min and the plasma was collected.
Time points for plasma collection in G1 group: 0, 5 m, 15 m, 30 m, 1 h, 2 h, 4 h, 6 h, 8 h, and 24 h.
Time points for plasma collection in G2 group: 0, 15 m, 30 m, 1 h, 2 h, 4 h, 6 h, 8 h, and 24 h.
Before analysis and detection, all samples were stored at −80° C. The samples were analyzed quantitatively by LC-MS/MS.

Mino cells = experiment: Inhibition of cell proliferation, Mino cells (Cell Viability Assay, 72 h); type: cell-based, human
Experimental: (§1) SU-DHL-4, Mino, and SU-DHL-6 cells, in the culture medium of RPMI1640+10% FBS, were cultured in an incubator at 37° C. under 5% CO2. Cells were plated in a 96-well plate. Specifically, SU-DHL-4 cells were at 20000/well, Mino and SU-DHL-6 cells were at 5000/well, with 90 μL/well. 10 μL of the compounds at different concentrations were added to each well. There were 3 replicate wells for each concentration, and the last column, added with DMSO, was used as a vehicle control group. The cultures were continued for 72 hours at 37° C. under 5% CO2. After 72 hours, 100 μL of detection reagent (Cell Viability Assay, Promega, G7573) was added to each well, and the cultures were uniformly mixed for 2 minutes, and incubated at room temperature for 10 minutes. The fluorescence signal value was measured with a microplate reader (PHERAstar FSX). The IC50 value of the compound on cell proliferation inhibition was calculated using Origin 9.2 software, and the inhibition rate at the highest concentration of the compound (Max inhi. %) was calculated according to formula (1). Max inhi. %=(1-T72 administration/T72 vehicle)×100 Formula (1).

SU-DHL-4 cells = experiment: Inhibition of cell proliferation, SU-DHL-4 cells (Cell Viability Assay, 72 h); type: cell-based, human; settings: Homo sapiens
Experimental: as §1

[2] = Sprague-Dawley (SD), rat, po, plasma, read-out: AUC0-t

Which results are given for `Nc1ncnc2c1c(-c1ccc(Oc3ccccc3)cc1)nn2C1CCN(C2CCN(C3CN(c4ccc5c(c4)C(=O)N(C4CCC(=O)NC4=O)C5=O)C3)CC2F)CC1` (stereo not drawn) [Compound 49-2, cis-5-(3-(4-(4-amino-3-(4-phenoxyphenyl)-1H-pyrazolo[3,4-d]pyrimidin-1-yl)-3′-fluoro-[1,4′-bipiperidin]-1′-yl)azetidin-1-yl)-2-(2,6-dioxopiperidin-3-yl)isoindoline-1,3-dione-P2]?
F (%) ([1]; i.g. 20 mg/kg (0.5% MC) vs i.v. 5 mg/kg): 4.14 ± 2.1%; AUC(0-t) ([1]; plasma): 475 ± 237 ng·h/mL; IC50 (Mino cells): 10 nM

What does the source list for `Nc1ncnc2c1c(-c1ccc(Oc3ccccc3)cc1)nn2[C@@H]1CCN(C2CCN(C3CN(c4ccc5c(c4)C(=O)N(C4CCC(=O)NC4=O)C5=O)C3)CC2)C[C@H]1F` (relative stereo) [Compound 20-1, trans-5-(3-(4-(4-amino-3-(4-phenoxyphenyl)-1H-pyrazolo[3,4-d]pyrimidin-1-yl)-3-fluoro-[1,4′-bipiperidin]-1′-yl)azetidin-1-yl)-2-(2,6-dioxopiperidin-3-yl)isoindoline-1,3-dione]?
AUC(0-t) ([1]; plasma): 891 ± 164 ng·h/mL; IC50 (Mino cells): 32 nM

Which results are given for `Nc1ncnc2c1c(-c1ccc(Oc3ccccc3)cc1)nn2C1CCN(C2CN(C3CN(c4cc5c(cc4F)C(=O)N(C4CCC(=O)NC4=O)C5=O)C3)C2)CC1` (stereo not shown) [Compound 21, 5-(3-(4-(4-amino-3-(4-phenoxyphenyl)-1H-pyrazolo[3,4-d]pyrimidin-1-yl)piperidin-1-yl)-[1,3′-biazetidin]-1′-yl)-2-(2,6-dioxopiperidin-3-yl)-6-fluoroisoindoline-1,3-dione]?
bioavailability ([1]; Sprague-Dawley (SD), rat, plasma, po, i.g. 20 mg/kg (0.5% MC) vs i.v. 5 mg/kg): 12.4 ± 3.8%; AUC(0-t) [1, 2]: 3200 ± 973 ng·h/mL

For `Nc1ncnc2c1c(-c1ccc(Oc3ccccc3)cc1)nn2C1CCN(c2cnc(N3CC4CN(c5ccc6c(c5)C(=O)N(C5CCC(=O)NC5=O)C6=O)CC4C3)nc2)CC1` (stereo not shown) [Compound 3, 5-[5-[5-[4-[4-amino-3-(4-phenoxyphenyl)pyrazolo[3,4-d]pyrimidin-1-yl]-1-piperidyl]pyrimidin-2-yl]-1,3,3a,4,6,6a-hexahydropyrrolo[3,4-c]pyrrol-2-yl]-2-(2,6-dioxo-3-piperidyl)isoindoline-1,3-dione tetratrifluoroacetate], which AUC(0-t) [1, 2] is on record?
Its AUC(0-t) is 211 ± 46 ng·h/mL.

Which AUC(0-t) [1, 2] does the source give for `Nc1ncnc2c1c(-c1ccc(Oc3ccccc3)cc1)nn2C1CCN(Cc2cnc(N3CC4(CCN(c5ccc6c(c5)C(=O)N(C5CCC(=O)NC5=O)C6=O)CC4)C3)nc2)CC1` (stereo not shown) [Compound 7, 5-[2-[5-[[4-[4-amino-3-(4-phenoxyphenyl)pyrazolo[3,4-d]pyrimidin-1-yl]-1-piperidyl]methyl]pyrimidin-2-yl]-2,7-diazaspiro[3.5]nonan-7-yl]-2-(2,6-dioxo-3-piperidyl)isoindoline-1,3-dione tritrifluoroacetate] here?
The AUC(0-t) was 105 ± 54 ng·h/mL.

Which results are given for `Nc1ncnc2c1c(-c1ccc(Oc3ccccc3)cc1)nn2C1CCN(C2CN(C3CCC(Oc4ccc5c(c4)C(=O)N(C4CCC(=O)NC4=O)C5=O)CC3)C2)CC1` (stereo not shown) [Compound 37, 5-[4-[3-[4-[4-amino-3-(4-phenoxyphenyl)pyrazolo[3,4-d]pyrimidin-1-yl]-1-piperidyl]azetidin-1-yl]cyclohexoxy]-2-(2,6-dioxo-3-piperidyl)isoindoline-1,3-dione]?
AUC(0-t) [1, 2]: 473 ± 105 ng·h/mL; IC50 (SU-DHL-4 cells): 631 nM

With `Nc1ncnc2c1c(-c1ccc(Oc3ccccc3)cc1)nn2C1CCN(c2cnc(N3CC4(CCN(c5ccc6c(c5)C(=O)N(C5CCC(=O)NC5=O)C6=O)CC4)C3)nc2)CC1` (stereo not shown) [Compound 4, 5-[2-[5-[4-[4-amino-3-(4-phenoxyphenyl)pyrazolo[3,4-d]pyrimidin-1-yl]-1-piperidyl]pyrimidin-2-yl]-2,7-diazaspiro[3.5]nonan-7-yl]-2-(2,6-dioxo-3-piperidyl)isoindoline-1,3-dione] as the compound, how does the AUC(0-t) [1, 2] read?
Its AUC(0-t) is 36 ± 10 ng·h/mL.

With `Nc1ncnc2c1c(-c1ccc(Oc3ccccc3)cc1)nn2C1CCN(C2CC3(CCN(c4ccc5c(c4)C(=O)N(C4CCC(=O)NC4=O)C5=O)CC3)C2)CC1` (stereo not shown) [Compound 1, 5-[2-[4-[4-amino-3-(4-phenoxyphenyl)pyrazolo[3,4-d]pyrimidin-1-yl]-1-piperidyl]-7-azaspiro[3.5]nonan-7-yl]-2-(2,6-dioxo-3-piperidyl)isoindoline-1,3-dione] as the compound, how does the AUC(0-t) [1, 2] read?
The AUC(0-t) was 479 ± 197 ng·h/mL.
